In patent US11397186B2, “Methods for covalently binding a cell surface protein and a ligand” (UNIVERSITEIT GENT, priority 2016, dated 2022):
Non-standard residues stand in square brackets, D forms with d. Residues, ends and D or L forms follow the SMILES beside them. Ala(2-furyl) = N[C@@H](Cc1ccco1)C(=O)O

Molecular target: T1, μ-opioid receptor (MOR) (Homo sapiens, UniProt P35372)
T1 construct: expressed in transfected cells; host or cells: CHO-hOR cells (CHO cells expressing the human opioid receptor)
T1 sequence (P35372 whole entry): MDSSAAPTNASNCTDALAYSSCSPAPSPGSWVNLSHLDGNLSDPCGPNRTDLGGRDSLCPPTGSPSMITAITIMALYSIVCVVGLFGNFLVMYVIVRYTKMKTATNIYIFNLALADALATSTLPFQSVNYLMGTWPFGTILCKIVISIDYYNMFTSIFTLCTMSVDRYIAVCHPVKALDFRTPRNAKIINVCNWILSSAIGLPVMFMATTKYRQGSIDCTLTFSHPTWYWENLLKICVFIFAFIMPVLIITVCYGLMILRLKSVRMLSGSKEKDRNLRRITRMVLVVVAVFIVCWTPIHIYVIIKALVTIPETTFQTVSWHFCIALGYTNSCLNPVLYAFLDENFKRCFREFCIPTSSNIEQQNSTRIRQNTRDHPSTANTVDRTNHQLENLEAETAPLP
Assay: Opioid receptor radio-ligand binding assay (CHO-hOR cells)
Conditions: based on Table 1
Experimental: Next, the synthesised peptides were subjected to biological activity testing, to know whether they still bind to the opioid receptor. If so, it is tested to which opioid receptor subtype they bind. It is also investigated whether the opioid peptides behave as agonist or antagonist. The following assays are performed: radio-ligand binding assay, ^35S GTP binding assay, and tissue experiments, including guinea pig ileum (GPI) and mouse vas deferens (MVD) tests.

N=C(N)NCCC[C@@H](NC(=O)[C@@H](N)Cc1ccc(O)cc1)C(=O)N[C@@H](Cc1ccco1)C(=O)N[C@@H](Cc1ccccc1)C(N)=O [FUA3] (H-Y[dR][Ala(2-furyl)]F-NH2; N-terminus and C-terminus assumed)
binding to the opioid receptor, assessment in words: acceptable
